Peptide text beside a SMILES is read from it.

Data set [1] concerns intestinal enzymes such as carboxypeptidase and chymotrypsin. The data set is described as follows: hydrolysis in the gastrointestinal tract or blood of the consumer. In kind it is in vivo. Particulars: after drinking a sweetened beverage.
In data set [2] the target is α-chymotrypsin (Bos taurus, UniProt P00766). The note with it: after 15 minutes at room temperature; 10:1 substrate:enzyme; 0.5 M ammonium acetate, pH 8.

On to `COC(=O)[C@H](Cc1ccccc1)NC(=O)C1(N)CC1C(=O)O` (some centres unmarked) [Example XXXVIII, 1-Aminocyclopropane-2-carboxylic Acid-1-carboxyl Phenylalanine Methyl Ester], for which the “does not hydrolyze cleave or break down in the gastrointestinal tract or blood” value in data set [1] is listed as “at least 24 hours”. As to `COC(=O)[C@H](Cc1ccccc1)NC(=O)[C@@H](N)CC(=O)O` [aspartame] (H-Asp-Phe-OMe), the “hydrolysis by α-chymotrypsin” value in data set [2] is reported as “hydrolyzed”.

The record behind these values is patent publication EP0135429B1, “The synthesis of cyclopropane amino acids and peptides” (THE UNIVERSITY OF GEORGIA RESEARCH FOUNDATION, INC., priority 1983, dated 1992).
